Source: PMC12188386, “Selective CBP/EP300 Bromodomain Inhibitors: Novel Epigenetic Tools to Counter TNF-α-Driven Inflammation” (JACS Au, 2025)

Tested on: Caco-2 cells
Experiment: bidirectional Caco-2 permeability assay
Type: in vitro ADME
Settings: Direction: A-B (apical-to-basolateral), 120 min
Procedure: (§1) Bidirectional Caco-2 Permeability Assay (provided by Cyprotex Discovery Ltd; Cheshire, UK)19 Following a standard Cyprotex procedure, Caco-2 cells (ATCC), used at passages 40–60, were seeded nt ranswe inserts at a densit f × ⁵ ce s/cm² and maintained in with media changes carried out every 2–3 days. Permeability assays were performed between days 18–22 post-seedin . pr cedures were c nducted at ° in a humidified incu at r with O₂. On the day of the assay, monolayers were prepared by rinsing both the apical and basolateral compartments with pre-warmed anks’ a anced a t uti n at the desired pH and incubated with HBSS on both sides for 30 minutes to equilibrate the compartments. The dosing solutions were obtained by diluting the test compounds in assay uffer t a c ncentrati n f with a fina O c ncentrati n f ≤ v/v and Lucifer yellow was included as a fluorescent marker to assess monolayer integrity. Analytical standards were prepared similarly, omitting the Lucifer yellow . For apical-to-basolateral (A– B) measurements, the dosing solution was applied to the apical chamber and buffer to the basolateral side, while the configuration was reversed for basolateral-to-apical (B–A) measurements. After a 120 min incubation, samples from both compartments were collected and diluted for quantification. Permeability was assessed in duplicates, and reference […]
(§2) compounds with known characteristics were included as controls. Quantification of test and control compounds was performed by LC-MS/MS using an 8-point calibration curve under Cyprotex standard analytical conditions. The initial concentration (C0) at time zero was determined from the dosing solution, and recovery was calculated based on concentrations […]
(§3) The apparent permeability coefficient (Papp) is calculated from the equation (where dQ/dt is the drug permeation rate across the cells, C0 is the concentration in the donor compartment at time zero, and A is the area of the cell monolayer):
(§4) Efflux ratio (ER) is calculated from mean A-B and B-A data: […]
(§5) Cells were fixed in situ with cold TCA: untreated cells at the time of compound addition (Tz) and treated cells 48 h after addition of compound (Ti). Cells were washed, then su f rh damine s uti n μ at . w/v in acetic acid was added to each well and incubated for 10 minutes at room temperature. After washing again, the plates were air dried and bound stain solubilized with 10 mM Trizma base before absorbance was […]
(§6) Percentage growth (%Growth) was calculated as follows:
(§7) when Ti ≥ Tz, %Growth = Ti − Tz x 100 where Ti = absorbance from compound treated cells, Tz = absorbance from untreated cells at time zero, and C = absorbance from control (DMSO) treated cells.
(§8) HEK293T, MRC5 and LP1 cells were cultured in DMEM (Gibco 41966 -029) containing 10 % or 15 % (LP1) FBS (Gibco 10270106 or Sigma F9665), 1 % non-essential amino acids (MRC5 only, […]
(§9) cultured in RPMI 1640 (Gibco 21875-034) containing 10 % FBS and 1 % P/S. All cells were grown in a humidified incubator with 5 % CO 2 at 37 °C.

Papp Replicate 1	Papp Replicate 2	Compound
0.0348 10-6 cms-1	0.0401 10-6 cms-1	CC(=O)Nc1cc(NC(=O)c2ccco2)cc(C(=O)Nc2cccc3nnc(C)cc23)c1 [Compound 1]
0.57 10-6 cms-1	0.677 10-6 cms-1	Cc1cc2c(NC(=O)c3cc(NC(=O)[C@H]4CCCO4)cc(-c4ccn(C)n4)c3)cccc2nn1 [Compound 5]

Compound	Papp Replicate 1	Papp Replicate 2
Cc1cc2c(NC(=O)c3cc(NC(=O)c4ccco4)cc(-c4ccn(C)n4)c3)cccc2nn1 [Compound 2]	0.565 10-6 cms-1	0.533 10-6 cms-1

Same assay, conditions: Direction: B-A (basolateral-to-apical), 120 min

Papp Replicate 1	Papp Replicate 2	Compound
11.6 10-6 cms-1	11.5 10-6 cms-1	CC(=O)Nc1cc(NC(=O)c2ccco2)cc(C(=O)Nc2cccc3nnc(C)cc23)c1 [Compound 1]
34.2 10-6 cms-1	30.9 10-6 cms-1	Cc1cc2c(NC(=O)c3cc(NC(=O)[C@H]4CCCO4)cc(-c4ccn(C)n4)c3)cccc2nn1 [Compound 5]

Compound	Papp Replicate 1	Papp Replicate 2
Cc1cc2c(NC(=O)c3cc(NC(=O)c4ccco4)cc(-c4ccn(C)n4)c3)cccc2nn1 [Compound 2]	28.9 10-6 cms-1	29.2 10-6 cms-1

Same assay, conditions: bidirectional Caco-2 assay

membrane permeability (Caco-2), in words	Compound
very low membrane permeability	CC(=O)Nc1cc(NC(=O)c2ccco2)cc(C(=O)Nc2cccc3nnc(C)cc23)c1 [Compound 1]
improved cellular permeability	Cc1cc2c(NC(=O)c3cc(NC(=O)[C@H]4CCCO4)cc(-c4ccn(C)n4)c3)cccc2nn1 [Compound 5]

Compound	membrane permeability (Caco-2), in words
Cc1cc2c(NC(=O)c3cc(NC(=O)c4ccco4)cc(-c4ccn(C)n4)c3)cccc2nn1 [Compound 2]	improved cellular permeability

Tested on: not listed separately
Experiment: bidirectional Caco-2 permeability assay
Type: in vitro ADME
Settings: human, Caco-2, Direction: A-B (apical-to-basolateral)
Procedure: as §1, §2, §3, §4, §5, §6, §7, §8, §9

recovery at 120 min [%]	Compound
80	CC(=O)Nc1cc(NC(=O)c2ccco2)cc(C(=O)Nc2cccc3nnc(C)cc23)c1 [Compound 1]
68.2	Cc1cc2c(NC(=O)c3cc(NC(=O)[C@H]4CCCO4)cc(-c4ccn(C)n4)c3)cccc2nn1 [Compound 5]

Compound	recovery at 120 min [%]
Cc1cc2c(NC(=O)c3cc(NC(=O)c4ccco4)cc(-c4ccn(C)n4)c3)cccc2nn1 [Compound 2]	47

Same assay, conditions: human, Caco-2, Direction: B-A (basolateral-to-apical)

recovery at 120 min [%]	Compound
87.3	CC(=O)Nc1cc(NC(=O)c2ccco2)cc(C(=O)Nc2cccc3nnc(C)cc23)c1 [Compound 1]
78	Cc1cc2c(NC(=O)c3cc(NC(=O)[C@H]4CCCO4)cc(-c4ccn(C)n4)c3)cccc2nn1 [Compound 5]

Compound	recovery at 120 min [%]
Cc1cc2c(NC(=O)c3cc(NC(=O)c4ccco4)cc(-c4ccn(C)n4)c3)cccc2nn1 [Compound 2]	61.8

Same assay, conditions: human, Caco-2; Direction: A-B (apical-to-basolateral), n=2

Papp A→B at 120 min [×10⁻⁶ cm/s]	Compound
0.0375	CC(=O)Nc1cc(NC(=O)c2ccco2)cc(C(=O)Nc2cccc3nnc(C)cc23)c1 [Compound 1]
0.623	Cc1cc2c(NC(=O)c3cc(NC(=O)[C@H]4CCCO4)cc(-c4ccn(C)n4)c3)cccc2nn1 [Compound 5]

Compound	Papp A→B at 120 min [×10⁻⁶ cm/s]
Cc1cc2c(NC(=O)c3cc(NC(=O)c4ccco4)cc(-c4ccn(C)n4)c3)cccc2nn1 [Compound 2]	0.549

Same assay, conditions: human, Caco-2; Direction: B-A (basolateral-to-apical), n=2

Papp B→A at 120 min [×10⁻⁶ cm/s]	Compound
11.5	CC(=O)Nc1cc(NC(=O)c2ccco2)cc(C(=O)Nc2cccc3nnc(C)cc23)c1 [Compound 1]
32.5	Cc1cc2c(NC(=O)c3cc(NC(=O)[C@H]4CCCO4)cc(-c4ccn(C)n4)c3)cccc2nn1 [Compound 5]

Compound	Papp B→A at 120 min [×10⁻⁶ cm/s]
Cc1cc2c(NC(=O)c3cc(NC(=O)c4ccco4)cc(-c4ccn(C)n4)c3)cccc2nn1 [Compound 2]	29

Same assay, conditions: human, Caco-2; from mean A-B and B-A data; read-out: Efflux Ratio (Papp(B-A)/Papp(A-B))

efflux ratio at 120 min	Compound
307	CC(=O)Nc1cc(NC(=O)c2ccco2)cc(C(=O)Nc2cccc3nnc(C)cc23)c1 [Compound 1]
52.2	Cc1cc2c(NC(=O)c3cc(NC(=O)[C@H]4CCCO4)cc(-c4ccn(C)n4)c3)cccc2nn1 [Compound 5]

Compound	efflux ratio at 120 min
Cc1cc2c(NC(=O)c3cc(NC(=O)c4ccco4)cc(-c4ccn(C)n4)c3)cccc2nn1 [Compound 2]	52.9

Tested on: myc expression in LP1 cells
Experiment: myc mRNA expression by RT-qPCR
Type: cell-based
Settings: 4 h treatment of LP1 cells with 1 μM compound
Procedure: For myc expression, 1x10^6 LP1 cells were plated the day prior to a 4 h treatment with compounds at a final DMSO concentration of 0.1 %. […]
In all cases, total
RNA was extracted using the NucleoSpin® RNA kit (Machery -Nagel) and used for cDNA synthesis with the High -Capacity cDNA Reverse Transcription kit (Applied Biosystems). RT-qPCR reactions were performed using PowerSYBR™ green PCR Master Mix (Applied Biosystems) and a LightCycler® 480 (Roche). cDNA was denatured for 10 min at 95 °C followed by 40 cycles of 15 s at 95 °C and 1 min at 60 °C. Cp values were determined as the maximum of the second derivative and target gene expression was compared to that of hprt from the same sample using the 2-ΔCp method. Gene expression was then normalized to the average of the control samples from the same day, or all biological replicates. […]

Compound	myc mRNA expression
Cc1cc2c(NC(=O)c3cc(NC(=O)c4ccco4)cc(-c4ccn(C)n4)c3)cccc2nn1 [Compound 2]	significantly decrease myc expression levels
CC(=O)Nc1cc(NC(=O)c2ccco2)cc(C(=O)Nc2cccc3nnc(C)cc23)c1 [Compound 1]	not observed
Cc1cc2c(NC(=O)c3cc(NC(=O)[C@H]4CCCO4)cc(-c4ccn(C)n4)c3)cccc2nn1 [Compound 5]	significantly decreased the expression level of myc

Target: T1, CBP-BRD (ePL-CBP-BRD in HEK293T cells) (Homo sapiens, UniProt Q92793)
T1 construct: (residues 1083-1197) was cloned into the pICP-ePL-C vector; expressed in transfected cells; host or cells: HEK293T, transient transfection (vector pICP-ePL-C, DiscoverX 94-4007S)
T1 sequence (Q92793 1083-1197): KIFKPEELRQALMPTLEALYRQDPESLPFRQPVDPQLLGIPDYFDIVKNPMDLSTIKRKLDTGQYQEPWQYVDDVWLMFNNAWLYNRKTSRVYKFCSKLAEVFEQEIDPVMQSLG
Experiment: CBP-BRD InCELL Pulse cellular target engagement
Type: cell-based
Settings: 1 h compound treatment of HEK293T cells transiently transfected with ePL-CBP-BRD
Procedure: The CBP-BRD (residues 1083-1197) was cloned into the pICP-ePL-C vector (DiscoverX, 94-4007S) between the EcoRI and XhoI restriction sites using the hexahistidine-CREBBP plasmid as a template. 5x10^5 HEK293T cells were plated on a 6 well plate the day prior to transfection with 1.5 μg ePL-CBP-BRD plasmid using 5 μl FugeneHD (Promega E2311) in 500 μl optiMEM® (Gibco, 31985062) . Proteins were allowed to express for 20 h before cells were trypsinized, washed and resuspended in low -serum medium (DMEM with 5 % FBS). Compounds were serially diluted in DMSO at 100x, pre-diluted to 5x in complete medium (DMEM with 10 % FBS and 1 % P/S), then added to a suspension of 5x10^3 cells, giving a final DMSO concentration of 1 %. Treated cells were incubated for 1 h at 37 °C in an incubator, followed by a heat shock for 3 min at 45 °C and recovery for 3 min at 22 °C using a thermocycler with a ramp rate of 1 °C/s (SimpliAmp, Thermo Fisher). Stab ilized ePL tag was quantified using the InCELL detecti n Kit isc verX as per the manufacturer’s pr t c usin the -10 working detection solution and a 2 h incubation before reading luminescence with a SpectraMax M5 plate reader (Molecular devices). […]

cellular binding to CBP-BRD (InCELL Pulse)	Compound
no ligand engagement in cellulo	CC(=O)Nc1cc(NC(=O)c2ccco2)cc(C(=O)Nc2cccc3nnc(C)cc23)c1 [Compound 1]
able to engage the target very similarly	Cc1cc2c(NC(=O)c3cc(NC(=O)[C@H]4CCCO4)cc(-c4ccn(C)n4)c3)cccc2nn1 [Compound 5]

Compound	cellular binding to CBP-BRD (InCELL Pulse)
Cc1cc2c(NC(=O)c3cc(NC(=O)c4ccco4)cc(-c4ccn(C)n4)c3)cccc2nn1 [Compound 2]	significant improvement in terms of cellular target engagement
